The text below walks through data of publication PMC9821843, “Powerful Potential of Polyfluoroalkyl-Containing 4-Arylhydrazinylidenepyrazol-3-ones for Pharmaceuticals” (Molecules, 2022).

Converted amounts (≈) assume the structure as drawn. Where two headings read alike, the source gives them in different places.

The target of series [1] is T1, equine serum butyrylcholinesterase (BChE, EC 3.1.1.8) (Equus caballus, UniProt P81908).
T1 construct: equine serum butyrylcholinesterase (BChE, EC 3.1.1.8); purchased Sigma-Aldrich (Saint Louis, MO, USA); host or cells: equine serum
T1 sequence (P81908 whole entry): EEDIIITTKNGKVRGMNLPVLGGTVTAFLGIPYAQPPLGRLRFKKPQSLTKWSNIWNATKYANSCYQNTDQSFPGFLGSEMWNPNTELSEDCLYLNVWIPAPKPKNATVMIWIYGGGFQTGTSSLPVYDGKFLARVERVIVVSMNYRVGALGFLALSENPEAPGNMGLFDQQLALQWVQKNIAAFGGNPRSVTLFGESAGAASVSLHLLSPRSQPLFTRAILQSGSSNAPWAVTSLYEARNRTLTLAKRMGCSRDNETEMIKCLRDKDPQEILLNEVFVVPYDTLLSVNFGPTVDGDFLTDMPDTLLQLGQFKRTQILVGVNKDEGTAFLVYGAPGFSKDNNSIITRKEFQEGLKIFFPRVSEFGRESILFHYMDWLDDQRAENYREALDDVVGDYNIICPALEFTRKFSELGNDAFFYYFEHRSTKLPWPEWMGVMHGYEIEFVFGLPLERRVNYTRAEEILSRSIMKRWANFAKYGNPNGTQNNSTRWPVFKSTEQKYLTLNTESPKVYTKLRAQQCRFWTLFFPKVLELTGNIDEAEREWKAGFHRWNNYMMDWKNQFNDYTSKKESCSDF
The experiment in a line: Inhibition of equine serum butyrylcholinesterase (Ellman assay). The series is classed as biochemical. Particulars: read-out: Inhibition % at 20 µM, Equine BChE. The source says: The following enzymes were purchased from Sigma-Aldrich (Saint Louis, MO, USA): porcine liver carboxylesterase (CES, EC 3.1.1.1), human erythrocyte acetylcholinesterase (AChE, EC 3.1.1.7) and equine serum butyrylcholinesterase (BChE, EC 3.1.1.8). Substrates for CES, AChE and BChE were 4-nitrophenyl acetate (4-NPA), acetylthiocholine iodide (ATCh) and butyrylthiocholine iodide (BTCh), respectively, and the colorimetric reagent for the AChE and BChE assays was 5,5’-dithio-bis-(2-nitrobenzoic acid) (DTNB) (Sigma-Aldrich). All the kinetic experiments were performed under standard conditions, according to the protocol of IPAC RAS for a reversible inhibitors study.
Final concentrations of reactants were 0.33 mM DTNB, 0.02 unit/mL of AChE or BChE and 1 mM of substrate (ATCh or BTCh, respectively). Reagent blanks consisted of reaction mixtures without enzyme to assess non-enzymatic hydrolysis of substrates.
Test compounds were dissolved in DMSO. Reaction mixtures contained a final DMSO concentration of 2% (v/v). […] Substrate was then added and residual enzyme activity relative to an inhibitor-free control was measured using a Bio-Rad Benchmark Plus microplate reader (Marnes-la-Coquette, France).
Measurements were performed in a Bio-Rad Benchmark Plus microplate reader. Each experiment was performed in triplicate. Plots, linear regressions and values of IC50, were determined using Origin 6.1 for Windows, OriginLab (Northampton, MA, USA).

The subject of series [2] is Neisseria gonorrhoeae ATCC 49226/NCTC 12700. The experiment in a line: Antibacterial activity against Neisseria gonorrhoeae. The series is classed as cell-based. Particulars: read-out: MIC against Neisseria gonorrhoeae. As for the experimental part: Antibacterial activity testing was done on the growth medium Difco GC medium base (Becton Dickinson, Franklin Lakes, NJ, USA) supplemented with 1% IsoVitaleX. Dilutions of chemical compounds were carried out in the range of 250–0.12 μg/mL in 24 well sterile plates (Sarstedt, Germany). Daily cultures of control bacterial strains were identified on a VITEK MS analyzer (BioMérieux, Marcy-l’Étoile, France) by MALDI-TOF mass spectrometry. The inoculation dose of N. gonorrhoeae inoculum was 10^5 CFU/mL.

Series [3] in a line: Acute toxicity evaluation in mice (ip). The following applies: CD-1, mouse, in vivo, 300 mg/kg. As for the experimental part:
The toxicity evaluation was performed on CD-1 mice. […] The tested compounds in 1% starch mucilage were injected intraperitoneally into three mice. Then, animals were observed during 14 days, the number of deaths was counted and % of viability calculated.

Series [4] relates to Sprague-Dawley (SD) rats. The experiment in a line: Hot plate test (analgesic activity). In kind it is in vivo. Particulars: ip, dose 15 mg/kg; for change in vivo at 15 mg/kg: Rattus norvegicus, hot plate test, rats, n.a. = inactive (p > 0.05). How it is done:
The hot plate test was conducted according to established guidelines on Sprague-Dawley (SD) rats (3 male and 3 female rodents per group). The compounds were intraperitoneally administered in the form of suspensions in 1% starch mucilage. Negative control group animals received vehicle only (1% starch mucilage). Diclofenac sodium (Hemofarm, Vršac, Serbia, 10 mg/kg in 1% starch mucilage solution) or metamizole sodium (PAO Biosynthesis, Sun Pharma, Penza, Russia, 15 mg/kg in 1% starch mucilage solution) were used as reference drugs. One and two hours after the injection, rats were placed on an electrically heated to 50 °C plate (Hot plate 60,200 series, TSE-systems, Bad Homburg, Germany) in a Plexiglas cylindrical restrainer (19 cm diameter × 30 cm). The nociceptive response time was measured by observing the appearance of rats’ movements (e.g., jumping, hind paw licking or shaking). Maximal cutoff time was set as 30 s regardless of the response in order to preclude skin damage.
Differences between the values of the latency period for the treated (experimental) and control groups of animals were considered significant at p ≤ 0.05.
On the technique in general: Thermal pain tests record how soon the animal reacts.

The test system of series [5] is Microsporum canis RCPF F 1643/1585. The experiment in a line: Antifungal susceptibility testing, M. canis. Particulars: Microsporum canis, RCPFF1643/1585, read-out: MIC for fungi strains inhibition, M. canis.
The subject of series [6] is Trichophyton rubrum RCPF F 1408. The experiment in a line: Antifungal susceptibility testing, T. rubrum. Particulars: Trichophyton rubrum, RCPFF1408, read-out: MIC for fungi strains inhibition, T. rubrum.
The test system of series [7] is Candida albicans RCPF Y 401/NCTC 885/653. The experiment in a line: Antifungal susceptibility testing, C. albicans. The following applies: NCTC885, read-out: MIC for fungi strains inhibition, C. albicans.
The subject of series [8] is Epidermophyton floccosum RCPF F 1659/17. The experiment in a line: Antifungal susceptibility testing, E. floccosum. The following applies: Epidermophyton floccosum, RCPFF1659/17, read-out: MIC for fungi strains inhibition, E. floccosum.
The nature of series [9]: Oxygen radical absorbance capacity (ORAC-FL) assay. The following applies: n.a. = inactive; i.t.s. = interferes with test system. An excerpt: We evaluated the primary antioxidant activity of synthesized 4-AHPs 5–9 in comparison with their non-fluorinated analogues 9a,b using three standard tests: ABTS, FRAP (ferric reducing antioxidant power) and ORAC (oxygen radical absorbance capacity) assays. The ABTS assay evaluates the binding of a model ABTS radical cation (ABTS^•+), which is realized by the mechanism of single electron transfer (SET) and/or hydrogen atom transfer (HAT). The FRAP assay measures the ability of compounds to reduce the ferric 2,4,6-tripyridyl-s-triazine complex [Fe(TPTZ)2]^3+ to [Fe(TPTZ)2]^2+, which occurs exclusively by the SET mechanism. The ORAC-FL assay measures the oxidative degradation of the fluorescent molecule (FL – fluorescein) after being mixed with a free peroxyl radical generator such as 2,2′-azobis-(2-methylpropionamidine) dihydrochloride (AAPH) in the presence of antioxidant (tested compound). The ORAC-FL test describes the antioxidants’ ability to yield the hydrogen atom and, consequently, it is a HAT-based assay. Trolox was used in all tests as a reference antioxidant: the antioxidant activity of the test compounds was referred to the activity of Trolox. The well-known antioxidant Edaravone was also used for comparison.
The ORAC assay was performed according to the known method, with minor variations and described by us recently.

[10] abbreviates: 2 h, read-out: Latent Period Prolongation, % 2 h.
[11] abbreviates: 1 h, read-out: Latent Period Prolongation, % 1 h.

In general, inhibition refers to the change of the read-out against control, counted positive when it falls. The MIC is the lowest concentration that inhibits growth of the organism. In the case of `O=C1/C(=N\Nc2c(Cl)cccc2Cl)C(C(F)(F)F)=NN1c1ccccc1` [5j, (4Z)-4-[2-(2,6-Dichlorophenyl)hydrazinylidene]-2-phenyl-5-(trifluoromethyl)-2,4-dihydro-3H-pyrazol-3-one], in [1], the inhibition at 20 µM was found to be 7.1 ± 1.2%. Further, the MIC is 31.2 µg/mL (≈ 77.8 µM) in series [2]; greater than 200 µg/mL in [5]; greater than 200 µg/mL in series [6]; greater than 200 µg/mL in series [7]; greater than 200 µg/mL in [8]. The survival at 14 days in series [3] worked out at 100%. In series [4] (SD rats, 1 and 2 h), the “analgesic activity in the hot plate test” value was “inactive”.
Take `NS(=O)(=O)c1ccc(N/N=C2\C(=O)N(c3ccccc3)N=C2C(F)(F)F)cc1` [5n, (4Z)-4-(2-[4-(Aminosulfonyl)phenyl]hydrazinylidene)-2-phenyl-5-(trifluoromethyl)-2,4-dihydro-3H-pyrazol-3-one]: in series [1], the inhibition at 20 µM stood at 3.5 ± 0.6%. The “ORAC-FL (TE, antioxidant activity in Trolox equivalents)” value in series [9] is reported as “i.t.s”. The same compound registered a survival at 14 days in series [3] of 100%. The change in vivo at 15 mg/kg in [4] (setting [10]) came out at 84%.
As for `O=C1/C(=N\Nc2cccc(Cl)c2)C(C(F)(F)C(F)(F)F)=NN1c1ccccc1` [6d, (4Z)-4-[2-(3-Chlorophenyl)hydrazinylidene]-5-(pentafluoroethyl)-2-phenyl-2,4-dihydro-3H-pyrazol-3-one], the inhibition at 20 µM in [1] worked out at 7.8 ± 1.2%. Further, the MIC in series [2] was 15.6 µg/mL (≈ 37.4 µM); in [5], greater than 200 µg/mL; in [6] it was greater than 200 µg/mL; in series [7], greater than 200 µg/mL; in series [8], 200 µg/mL (≈ 480 µM). Also, the survival at 14 days in series [3] was 100%. Also, the change in vivo at 15 mg/kg in [4] (setting [11]) turned out to be 93%; in series [4] (setting [10]), 63%.
For the compound `CN[C@@H]1[C@H](O)[C@H](NC)[C@H]2O[C@@]3(O)C(=O)C[C@@H](C)O[C@H]3O[C@@H]2[C@H]1O` [Spectinomycin, reference compound], the MIC in series [2] was 15.6 µg/mL (≈ 46.9 µM).
For `Cc1c(N(C)CS(=O)(=O)O)c(=O)n(-c2ccccc2)n1C` [metamizole, reference compound], in [3], the survival at 14 days was determined as 100%. Further, the change in vivo at 15 mg/kg in series [4] (setting [11]) turned out to be 34.2 ± 11.3%; in series [4] (setting [10]), 64.6 ± 22.5%.
